Patent publication US20090325863A1, “Somatostatin analogs and IGF-I inhibition for breast cancer prevention” (priority 2008, published 2009)
Several values for one entry are separate records, joined by “and”; a condition that tells them apart may be missing. Equal values may be shown once. Entries after “also recorded” stand apart in the source; their conditions may differ. Marks after values point to notes of the source that are not given here. *1 amine or outer side, *2 acyl side, *3 side chain or, on linkers, in order; H or OH if unused. Where a SMILES comes first, the peptide text is derived from it. Side-chain parts run from the residue outwards. [ ]: non-standard residue; d: D form. The star is where a group is joined. Ethylenediamine = C(CN[*:2])N[*:1]; Hyp = O=C(O)[C@@H]1C[C@@H](O)CN1; Phg = N[C@H](C(=O)O)c1ccccc1; CO = O=C([*:1])[*:2]; Bn = c1ccc(C*)cc1

Key:
[1] = test system: mammary hyperplasia induced by hGH and E2; assay: Mammary hyperplasia model induced by hGH and E2, counts in histological sections; assay type: in vivo, rat; conditions: for Mild# (mild hyperplasia): GH + E2 control 4.2 ± 0.6, E2 1.9 ± 0.2; for Moderate# (moderate hyperplasia): GH + E2 control 5.0 ± 0.7, E2 0; for Florid# (florid hyperplasia): GH + E2 control 9.6 ± 0.1, E2 0; for Total# (total number of glands): hypophysectomized, oophorectomized female rats, hGH 600 μg + E2, 7 days, GH + E2 control 71.9 ± 5.4, E2 42.2 ± 1.4; for Florid#: GH + E2 control 10 ± 0.7
Source text: To test whether SOM230, a drug that inhibits IGF-I action on the breast, was effective, we implemented a model of hyperplasia and then determined whether the hyperplasia could be inhibited by SOM230. We administered human growth hormone (600 mcg in alzet pumps) for a week, and gave this together with estradiol (an estrogen). At the end of 7 days florid hyperplasia developed. Mammary hyperplasia was modeled by treating hypophysectomized, oophorectomized female rats with high doses human growth hormone (hGH) (600 μg in Alzet pumps) and follicular phase concentrations of estradiol (E2) administered in silastic capsules for 7 days. In the absence of hGH, these animals would not undergo mammary development. In animals receiving E2 alone, there was virtually no hyperplasia. When hGH was added to E2 there were more glands (42.2±1.4 vs. 71.9±5.4, E2 vs. E2+hGH, respectively). There was no florid hyperplasia with E2 treatment. When hGH was given also, 26.6% of the glands were hyperplastic, with 50% of those being floridly hyperplastic, 7% moderate hyperplasia and 5.9% mild hyperplasia. […] This is shown in histological sections (FIG. 1), graphically (FIG. 2) and in tabular form below (TABLE 1).
Background: Antiestrogens or aromatase inhibitors are used for breast cancer chemoprevention. These treatments cause unpleasant side effects including hot flashes and vaginal dryness. We have previously shown that IGF-I is required to permit estrogen and progesterone action in the mammary gland. […] Menopausal symptoms would not likely to occur with SOM230 since estrogen is not lowered. Material and Methods: We have approached this issue in several ways. 1) We developed a model of hyperplasia in hypophysectomized and oophorectomized female rats. Hyperplasia was induced by treatment with 600 mcg hGH and follicular phase concentrations of estradiol. Hyperplasia was assessed histologically in sections of mammary gland. 2) To assess translatability to humans we assessed cell proliferation and apoptosis in normal human breast from reduction mammoplasties and samples of usual hyperplasia. 3) We also determined availability of SST receptors in samples of atypical ductal hyperplasia and DCIS, and 4) We have begun to determine whether SOM230 will prevent hyperplasia in humans at risk for breast cancer as it does in rats.
The degree of hyperplasia was analyzed in 3 histological sections at different levels in 3 test animals given GH+E2. The different types of hyperplasia were counted. For example, the total mean number of ducts was 88.3. Of those ducts, there were 19.7 or 22.3% of total ducts that were hyperplastic. The breakdown was a mean of 10 ducts with florid hyperplasia (lumen is distended and mostly obliterated by epithelial cells), a mean of 5.3 ducts with moderate hyperplasia (an increase in cell layers to >4 cells thick), and a mean of 4.4 characterized as mild hyperplasia (no more than 4 cell thickness).
There were 4 additional treatment groups and one E2 treated control group.

[2] = test system: pYIRS-1 (phosphorylated IRS-1), product of IGF-I action; assay: Immunostaining for phosphorylated IRS-1 in mammary gland, hGH+E2 model; assay type: in vivo, rat; conditions: hGH+E2 treated animals; staining most intense with hGH+E2
Source text: FIG. 12 depicts immunostaining for pYIRS-1 (phosphorylated IRS-1) in a representative E2 treated control (upper left), an hGH+E2 treated animal (upper right), an hGH+E2+SOM230 treated animal (lower left) and an hGH+E2+tamoxifen treated animal (lower right). The intensity of staining parallels IGF-I action as phosphorylated IRS-1 is a product of IGF-I action. In this study, staining (brown color) was most intense in response to hGH+E2 and was inhibited by both SOM230 and tamoxifen. […] This reflection of inhibition of IGF-I activity also supports the greater inhibitory effect of SOM230 over that of tamoxifen.

[3] = test system: Factor VIII; assay: Factor VIII immunostaining in mammary glands of normally developing rats; assay type: in vivo, rat; conditions: 28 day old rats treated from day 21; gland cells and mast cells
Source text: They were found in both gland cells and mast cells.

[4] = test system: pYIRS-1 (phosphorylated IRS-1); assay: pYIRS-1 staining in glands and mast cells of normally developing rats; assay type: in vivo, rat; conditions: 28 day old female rats treated from day 21
Source text: We have found for the first time that mast cells play a role in normal mammary development. Mast cells appear around developing mammary gland structures in rats. […] The same animals when they were 21 days old were given SOM230. […] The mast cells are found directly around the developing glands in the stromal compartment.
That these mast cells are directly stimulated by IGF-I is supported by the observation that phosphorylated IRS-1 was reduced in mast cells on exposure to SOM230. The action of SOM230 in mammary gland is therefore one of IGF-I action inhibition. […] The one on the right panel is from an animal treated with SOM230. Not only was pYIRS-I reduced in glands but mast cells were reduced as well.

[5] = test system: hGH induced TEB formation; assay: Hyperplastic terminal endbuds (TEBs) in mammary gland whole mounts, hGH+E2 model; assay type: in vivo, rat; conditions: for TEB area: Table 2, mean of 3 animals, hGH + E control 43.1 ± 2.9, P 0.002
Source text: At the end of 7 days one lumbar mammary gland was removed for whole mount analysis and the other for histological analysis. Hyperplastic TEBs were counted in the whole mounts. […] Representative photomicrographs of the whole mounts are provided in FIG. 5 and suppression by the different treatments is shown graphically in FIG. 6.

[6] = test system: Ki67 positive cells in mammary gland; assay: Cell proliferation by Ki67 immunostaining in mammary gland, hGH+E2 model; assay type: in vivo, rat; conditions: for % Ki67 positive cells, Normal gland / % Ki67 positive cells, DH structure Mod + mild: 3 animals; for % Ki67 positive cells, Normal gland: hGH + E2 control 5.1 ± 0.1; for % Ki67 positive cells, DH structure Mod + mild: hGH + E2 control 22.5 ± 1.6 (P < 0.05); for cell proliferation / Ki67 staining (in words): hGH+E2 model versus hGH+E2 control
Experimental: The histological sections were also analyzed for cell proliferation by Ki67 immunostaining and for apoptosis by TUNEL. Twenty five percent of cells in areas of florid hyperplasia were stained for Ki67. […] When the glands were normal and not hyperplastic, only 5.1% stained for Ki67. […] The immunostaining for Ki67 can be seen in FIG. 3.
We next determined the effects of the various treatment regimens on cell proliferation as assessed by Ki67 immunostaining. […] The percent Ki67 positive cells is depicted in TABLE 4 below.

[7] = target: SSTR-3 (Homo sapiens, UniProt P32745); conditions: cited from earlier work
Sequence of SSTR-3 (P32745 whole entry, species assumed): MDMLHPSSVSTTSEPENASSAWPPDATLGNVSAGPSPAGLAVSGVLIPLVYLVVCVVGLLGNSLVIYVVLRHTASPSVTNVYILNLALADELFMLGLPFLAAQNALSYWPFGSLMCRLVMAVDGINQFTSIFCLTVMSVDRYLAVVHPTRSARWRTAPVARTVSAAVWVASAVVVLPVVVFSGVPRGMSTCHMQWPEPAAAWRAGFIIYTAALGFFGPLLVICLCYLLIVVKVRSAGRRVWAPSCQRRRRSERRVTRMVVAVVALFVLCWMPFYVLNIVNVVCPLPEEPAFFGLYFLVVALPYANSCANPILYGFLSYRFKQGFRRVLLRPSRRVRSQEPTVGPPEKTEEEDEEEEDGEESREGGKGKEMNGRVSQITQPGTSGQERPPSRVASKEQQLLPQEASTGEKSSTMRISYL

NCCCC[C@@H]1NC(=O)[C@@H](Cc2c[nH]c3ccccc23)NC(=O)[C@H](c2ccccc2)NC(=O)[C@@H]2C[C@@H](OC(=O)NCCN)CN2C(=O)[C@H](Cc2ccccc2)NC(=O)[C@H](Cc2ccc(OCc3ccccc3)cc2)NC1=O [SOM230] (cyclo([Hyp]([CO-Ethylenediamine])[Phg][dW]KY(Bn)F))
number of areas of florid hyperplasia ([1]; Example 3, from 18.9±1.3 with hGH and E2 (p<0.001)): 7.5±0.5 | Mild# (mild hyperplasia) ([1]; Table 1, 7 days): 3.0±0.4 | Mild# (mild hyperplasia) ([1]; Table 1, 7 days, listed as SOM): 3.0 ± 0.4 | Moderate# (moderate hyperplasia) ([1]; Table 1, 7 days): 3.8±0.4 | Moderate# (moderate hyperplasia) ([1]; Table 1, 7 days, listed as SOM): 3.8 ± 0.4 | Florid# (florid hyperplasia) ([1]; Table 1, 7 days): 0.8±0.2 | Florid# (florid hyperplasia) ([1]; Table 1, 7 days, listed as SOM): 0.8 ± 0.2 | DH# (hyperplastic structures) ([1]; Table 1, 7 days, GH + E2 control 18.9 ± 1.3, E2 1.9 ± 0.2): 7.5 ± 0.5^b | Total# (total number of glands) ([1]; Table 1): 46.0±2.8 | Total# (total number of glands) ([1]; Table 1, listed as SOM): 46.0 ± 2.8 | Total# ([1]; Table 3, SOM230 30 mcg/h/kg, Octreotide 30 mcg/hr/kg, Tamoxifen 30 mg/21 day release pellet, GH + E2 control 88.3 ± 6.3): 61.4 ± 7.0 | Mild# ([1]; Table 3, same doses, GH + E2 control 4.4 ± 0.6): 3.3 ± 0.3 | Moderate# ([1]; Table 3, same doses, GH + E2 control 5.3 ± 0.6): 3.8 ± 0.4 | Florid# ([1]; Table 3, same doses): 1.7 | Florid# ([1]; Table 3, same doses, listed as SOM): 1.7 ± 0.6 | DH# ([1]; Table 3, same doses, GH + E2 control 19.7 ± 1.5): 8.8 ± 0.7^b | hyperplasia / breast hyperplastic lesions (in words) ([1]; given together with hGH and estradiol, 7 days): hyperplasia was significantly inhibited; also recorded: reduction in the number and size of breast hyperplastic lesions; also recorded: reduction in hyperplasia | intensity of pYIRS-1 immunostaining [2]: inhibited | expression of Factor VIII (immunostaining) [3]: reduced expression | pYIRS-1 in glands and mast cells [4]: inhibited; also recorded: reduced | TEB area, individual animals ([5]; Table 2, animal # 1-3, hGH + E controls 48549, 38496, 42285, listed as SOM): 18816 and 13652 and 15356 | TEB area [5]: reduced | TEB area ([5]; listed as SOM): 15.9 ± 1.5 (μm^2) × 10^3 | number of hyperplastic TEBs in whole mounts ([5]; hGH+E2, 7 days, reduced from 86.5 (86) TEBs in hGH+E2 control): 27.5 | % Ki67 positive cells, Normal gland [6]: no significant reduction | % Ki67 positive cells, Normal gland ([6]; listed as SOM): 4.3 ± 0.4% | % Ki67 positive cells, DH structure Mod + mild [6]: 14.2% | % Ki67 positive cells, DH structure Mod + mild ([6]; listed as SOM): 14.2 ± 2.5% | cell proliferation / Ki67 staining (in words) [6]: reduction in cell proliferation; also recorded: decrease in Ki67 staining | cell proliferation / Ki67 staining (in words) ([6]; listed as SOM 230): remarkable decrease in cell division | affinity for SSTR-3 [7]: has affinity
